A short description of one series: Cell cytotoxicity (CC50). Format: cell-based. The settings on record: human; mean of at least two experiments. The method in brief:
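Values are means of ≥2 independent runs, rounded to whole units, from 4-parameter variable-slope curve fits. Toxicity measured in Hep-G2 cells run alongside RSV plaque-reduction assays.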

Another series is described as follows: in vitro. Format: in vitro ADME. As to conditions: microsomes, pH 7.4, 1 μM compound, 0.5 mg/mL protein, read-out: Liver Microsomal Stability t1/2. Here is the method:
Compounds were subjected to the following assays to investigate liver microsomal stability and hepatocyte stability.
Microsomal Incubation: Experimental Procedure
Pooled liver microsomes were purchased from a reputable commercial supplier and stored at −80° C. prior to use. Microsomes (final protein concentration 0.5 mg/mL), 0.1 M phosphate buffer pH 7.4 and test compound (final substrate concentration 1 μM; final DMSO concentration 0.25%) were pre-incubated at 37° C. prior to the addition of NADPH (final concentration 1 mM) to initiate the reaction. The final incubation volume was 50 μL. A control incubation was included for each compound tested where 0.1 M phosphate buffer pH 7.4 was added instead of NADPH (minus NADPH). Two control compounds were included with each species. All incubations were performed singularly for each test compound. Each compound was incubated for 0, 5, 15, 30 and 45 min. The control (minus NADPH) was incubated for 45 min only. The reactions were stopped by transferring incubate into acetonitrile at the appropriate time points, in a 1:3 ratio. The termination plates are centrifuged at 3,000 rpm for 20 min at 4° C. to precipitate the protein. Following protein precipitation, the sample supernatants were combined in cassettes of up to 4 compounds, internal standard added, and samples analysed by LC-MS/MS. From a plot of ln peak area ratio (compound peak area/internal standard peak area) against time, the gradient of the line was determined. Subsequently, half-life (t1/2) and intrinsic clearance (CLint) were calculated.

The test system of another series is RSV A2. Nature of the series: RSV plaque reduction assay. Format: cell-based, respiratory syncytial virus (RSV). The settings on record: human respiratory syncytial virus, HepG2, Hep-G2 cells, mean of at least two experiments. The method in brief: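 RSV A2 at 100 PFU/well was premixed with eight compound dilutions and added to confluent Hep-G2 monolayers for 2 h at 37 °C. Cells were then kept 2 days under a DMEM/2% FBS/0.8% CMC overlay containing compound. Immunostained plaques were counted relative to virus controls, and EC50 came from 4-parameter fits, averaged over at least two experiments.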

Read-outs that look alike come from different tables or passages of the source.

The CC50 is the concentration giving 50% cytotoxicity. In general, EC50 refers to the midpoint of the concentration-response curve. The low end stands for greater potency, the high end for weaker potency.

Regarding `O=C(N[C@H]1N=C(c2ccccc2)c2ccccc2NC1=O)c1c(-c2ccccc2)nc2cccnn12` [Example 87, N-[(3S)-2-oxo-5-phenyl-1,3-dihydro-1,4-benzodiazepin-3-yl]-2-phenylimidazo[1,2-b]pyridazine-3-carboxamide], the CC50 in the series “Cell cytotoxicity (CC50)” is over 25000 nM. For the same compound, the half-life at 1 μM amounted to 1.12 h in “in vitro” (dog), 68.8 h in “in vitro” (human) and 1.43 h in the series “in vitro” (rat). In the series with RSV A2, the half-maximal effective concentration (EC50) amounted to 53 nM.

As for `O=C(N[C@H]1N=C(c2ccccc2)c2ccccc2NC1=O)c1c(-c2ccccc2F)nn2ccc(N3CCOCC3)nc12` [Example 39, 2-(2-Fluorophenyl)-5-(morpholin-4-yl)-N-[(3S)-2-oxo-5-phenyl-2,3-dihydro-1H-1,4-benzodiazepin-3-yl]pyrazolo[1,5-a]pyrimidine-3-carboxamide], the CC50 in the series “Cell cytotoxicity (CC50)” is over 25000 nM. Further, the half-life at 1 μM in “in vitro” (dog) stood at 0.255 h; in the series “in vitro” (human), 1.33 h; in the series “in vitro” (rat) it was 0.538 h. Further, in the series on RSV A2, the EC50 is 62 nM.

In the series “Cell cytotoxicity (CC50)”, `Cc1ccc2nc(-c3ccncc3F)c(C(=O)N[C@H]3N=C(c4ccccc4)c4cccc(F)c4NC3=O)n2n1` [Example 100, N-[(3S)-9-fluoro-2-oxo-5-phenyl-1,3-dihydro-1,4-benzodiazepin-3-yl]-2-(3-fluoropyridin-4-yl)-6-methylimidazo[1,2-b]pyridazine-3-carboxamide] had a CC50 of over 25000 nM. In addition, the half-life at 1 μM in the series “in vitro” (dog) came to 1.37 h; in “in vitro” (human) it was 15.1 h; in the series “in vitro” (rat), 0.457 h. In the series on RSV A2, this compound came in with an EC50 of 47 nM.

Regarding `Cc1cnc2c(C(=O)N[C@H]3N=C(c4ccccc4)c4cccc(F)c4NC3=O)c(-c3ccccc3F)nn2c1` [Example 34, N-[(3S)-9-Fluoro-2-oxo-5-phenyl-1,3-dihydro-1,4-benzodiazepin-3-yl]-2-(2-fluorophenyl)-6-methylpyrazolo[1,5-a]pyrimidine-3-carboxamide], the half-maximal cytotoxic concentration (CC50) in “Cell cytotoxicity (CC50)” is over 25000 nM. The half-life at 1 μM in “in vitro” (dog) is 1.44 h; in the series “in vitro” (human), over 2.33 h; in the series “in vitro” (rat) it was 1.08 h. Further, the EC50 with RSV A2 came to 23 nM.

`O=C(N[C@H]1N=C(c2ccccc2)c2cccc(F)c2NC1=O)c1c(-c2ccc(F)cc2F)nn2cccnc12` [Example 5, 2-(2,4-Difluorophenyl)-N-[(3S)-9-fluoro-2-oxo-5-phenyl-1,3-dihydro-1,4-benzodiazepin-3-yl]pyrazolo[1,5-a]pyrimidine-3-carboxamide] returned a 50% cytotoxic concentration (CC50) in the series “Cell cytotoxicity (CC50)” of over 25000 nM. The half-life at 1 μM in the series “in vitro” (dog) is 5.93 h; in “in vitro” (human) it was over 2.33 h; in the series “in vitro” (rat), over 2.33 h. The half-maximal effective concentration (EC50) in the series with RSV A2 was determined as 39 nM.

In turn, `CC(C)c1ccc(-c2nn3cccnc3c2C(=O)N[C@H]2N=C(c3ccccc3)c3cccc(F)c3NC2=O)cn1` [Example 59, 2-(6-Propan-2-ylpyridin-3-yl)-N-[(3S)-9-fluoro-2-oxo-5-phenyl-1,3-dihydro-1,4-benzodiazepin-3-yl]pyrazolo[1,5-a]pyrimidine-3-carboxamide] had a CC50 in “Cell cytotoxicity (CC50)” of over 25000 nM. The half-life at 1 μM in the series “in vitro” (dog) was 1.51 h; in the series “in vitro” (human) it was 2.28 h; in the series “in vitro” (rat) it was 1 h. A half-maximal response with RSV A2 (EC50) required 60 nM.

`COc1ccc(-c2nn3cccnc3c2C(=O)N[C@H]2N=C(c3ccccc3)c3ccccc3NC2=O)c(F)c1` [Example 14, 2-(2-Fluoro-4-methoxyphenyl)-N-[(3S)-2-oxo-5-phenyl-1,3-dihydro-1,4-benzodiazepin-3-yl]pyrazolo[1,5-a]pyrimidine-3-carboxamide]: the CC50 in “Cell cytotoxicity (CC50)” was over 25000 nM. The values for the half-life at 1 μM in the series “in vitro” (dog), in the series “in vitro” (human) and in “in vitro” (rat) were 1.33 h, over 2.33 h and 2.72 h, respectively. In the series on RSV A2, this compound yielded an EC50 of 41 nM.

Compound `O=C(N[C@H]1N=C(c2ccccc2)c2cccc(F)c2NC1=O)c1c(-c2c(F)cccc2F)nn2cccnc12` [Example 44, 2-(2,6-Difluorophenyl)-N-[(3S)-9-fluoro-2-oxo-5-phenyl-1,3-dihydro-1,4-benzodiazepin-3-yl]pyrazolo[1,5-a]pyrimidine-3-carboxamide] returned a CC50 in “Cell cytotoxicity (CC50)” of over 25000 nM. Besides, the figures for the half-life at 1 μM in “in vitro” (dog), in “in vitro” (human) and in the series “in vitro” (rat) were 12.5 h, 9.07 h and 3.85 h, respectively. In addition, the EC50 in the series on RSV A2 amounted to 87 nM.

Compound `Cc1cnc(F)c(-c2nn3cccnc3c2C(=O)N[C@H]2N=C(c3ccccc3)c3cccc(F)c3NC2=O)c1` [Example 32, 2-(2-Fluoro-5-methylpyridin-3-yl)-N-[(3S)-9-fluoro-2-oxo-5-phenyl-1,3-dihydro-1,4-benzodiazepin-3-yl]pyrazolo[1,5-a]pyrimidine-3-carboxamide] showed a CC50 in the series “Cell cytotoxicity (CC50)” of over 25000 nM. In addition, the half-life at 1 μM in “in vitro” (dog) was 3.78 h; in the series “in vitro” (human) it was 5.58 h; in the series “in vitro” (rat) it was 1.28 h. The compound also displayed a half-maximal effective concentration (EC50) in the series with RSV A2 of 86 nM.

In “Cell cytotoxicity (CC50)”, `CCc1ccc(-c2nn3cccnc3c2C(=O)N[C@H]2N=C(c3ccccc3)c3ccccc3NC2=O)cn1` [Example 54, 2-(6-Ethylpyridin-3-yl)-N-[(3S)-2-oxo-5-phenyl-1,3-dihydro-1,4-benzodiazepin-3-yl]pyrazolo[1,5-a]pyrimidine-3-carboxamide] showed a 50% cytotoxic concentration (CC50) of over 25000 nM. The half-life at 1 μM is 1.32 h in the series “in vitro” (dog), 2.92 h in the series “in vitro” (human) and 1.28 h in the series “in vitro” (rat). In the series with RSV A2, this compound registered a concentration giving a half-maximal response (EC50) of 151 nM.

Take `Cc1ccc2nc(-c3cccnc3)c(C(=O)N[C@H]3N=C(c4ccccc4)c4cccc(F)c4NC3=O)n2n1` [Example 96, N-[(3S)-9-fluoro-2-oxo-5-phenyl-1,3-dihydro-1,4-benzodiazepin-3-yl]-6-methyl-2-pyridin-3-ylimidazo[1,2-b]pyridazine-3-carboxamide]: in the series “Cell cytotoxicity (CC50)”, the cytotoxic concentration (CC50) is over 25000 nM. Further, the figures for the half-life at 1 μM in “in vitro” (dog), in “in vitro” (human) and in the series “in vitro” (rat) were 3.78 h, 42.8 h and 0.468 h, respectively. For the same compound, in the series with RSV A2, the EC50 amounted to 91 nM.

For `O=C(N[C@H]1N=C(c2ccccc2)c2cccc(F)c2NC1=O)c1c(-c2ccc(F)cc2F)nc2cccnn12` [Example 89, 2-(2,4-Difluorophenyl)-N-[(3S)-9-fluoro-2-oxo-5-phenyl-1,3-dihydro-1,4-benzodiazepin-3-yl]imidazo[1,2-b]pyridazine-3-carboxamide], the 50% cytotoxic concentration (CC50) in the series “Cell cytotoxicity (CC50)” was over 25000 nM. For the same compound, the half-life at 1 μM came out at 18 h in “in vitro” (dog), 12.3 h in “in vitro” (human) and 3.1 h in the series “in vitro” (rat). The compound also had an EC50 in the series with RSV A2 of 19 nM.

`O=C(N[C@H]1N=C(c2ccccc2)c2cccc(F)c2NC1=O)c1c(-c2ccccc2)nc2cccnn12` [Example 107, N-[(3S)-9-fluoro-2-oxo-5-phenyl-1,3-dihydro-1,4-benzodiazepin-3-yl]-2-phenylimidazo[1,2-b]pyridazine-3-carboxamide]: in “Cell cytotoxicity (CC50)”, the CC50 is over 25000 nM. The half-life at 1 μM in “in vitro” (dog) is 3.12 h; in the series “in vitro” (human), 4.97 h; in “in vitro” (rat) it was 1.46 h. For the same compound, it took 37 nM to reach a half-maximal effect with RSV A2 (EC50).

In turn, `O=C(N[C@H]1N=C(c2ccccc2)c2cccc(F)c2NC1=O)c1c(-c2cnc3[nH]ccc3c2)nn2cccnc12` [Example 75, N-[(3S)-9-Fluoro-2-oxo-5-phenyl-1,3-dihydro-1,4-benzodiazepin-3-yl]-2-(1H-pyrrolo[2,3-b]pyridin-5-yl)pyrazolo[1,5-a]pyrimidine-3-carboxamide] had a CC50 in the series “Cell cytotoxicity (CC50)” of over 25000 nM. For the same compound, the half-life at 1 μM in “in vitro” (dog) was 1.45 h; in the series “in vitro” (human) it was 11.3 h; in “in vitro” (rat), 0.833 h. In addition, in the series on RSV A2, a half-maximal effect (EC50) was put at 44 nM.

`O=C(N[C@H]1N=C(c2ccccc2)c2ccccc2NC1=O)c1c(-c2ccc(C3CC3)nc2)nn2cccnc12` [Example 29, 2-(6-Cyclopropylpyridin-3-yl)-N-[(3S)-2-oxo-5-phenyl-1,3-dihydro-1,4-benzodiazepin-3-yl]pyrazolo[1,5-a]pyrimidine-3-carboxamide] had a CC50 in “Cell cytotoxicity (CC50)” of over 25000 nM. Moreover, the half-life at 1 μM is 1.23 h in “in vitro” (dog), 5.22 h in the series “in vitro” (human) and 15.2 h in “in vitro” (rat). This compound had an EC50 in the series with RSV A2 of 72 nM.

Turning to `Cc1nn2cc(-c3ccoc3)cnc2c1C(=O)N[C@H]1N=C(c2ccccc2)c2cccc(F)c2NC1=O` [Example 24, N-[(3S)-9-Fluoro-2-oxo-5-phenyl-1,3-dihydro-1,4-benzodiazepin-3-yl]-6-(furan-3-yl)-2-methylpyrazolo[1,5-a]pyrimidine-3-carboxamide], the cytotoxic concentration (CC50) in the series “Cell cytotoxicity (CC50)” is over 25000 nM. Besides, the half-life at 1 μM in “in vitro” (dog) was 1.98 h; in the series “in vitro” (human) it was over 2.33 h; in “in vitro” (rat), 0.427 h. The compound further registered a concentration for a half-maximal effect (EC50) with RSV A2 of 104 nM.

These data come from patent publication US11634425B2, “Pharmaceutical compounds” (priority 2019, dated 2023).
